# In patent US10988524B2, “Modified relaxin B chain peptides and their therapeutic use” (priority 2018, dated 2021):
# Non-standard residues stand in square brackets, D forms with d. Residues, ends and D or L forms follow the SMILES beside them. 1Nal = N[C@@H](Cc1cccc2ccccc12)C(=O)O; αMeL = CC(C)C[C@](C)(N)C(=O)O; Nle = CCCC[C@H](N)C(=O)O; Aib = CC(C)(N)C(=O)O
# Target: T1, RXFP1 (Homo sapiens, UniProt Q9HBX9)
# T1 sequence (Q9HBX9 1-757): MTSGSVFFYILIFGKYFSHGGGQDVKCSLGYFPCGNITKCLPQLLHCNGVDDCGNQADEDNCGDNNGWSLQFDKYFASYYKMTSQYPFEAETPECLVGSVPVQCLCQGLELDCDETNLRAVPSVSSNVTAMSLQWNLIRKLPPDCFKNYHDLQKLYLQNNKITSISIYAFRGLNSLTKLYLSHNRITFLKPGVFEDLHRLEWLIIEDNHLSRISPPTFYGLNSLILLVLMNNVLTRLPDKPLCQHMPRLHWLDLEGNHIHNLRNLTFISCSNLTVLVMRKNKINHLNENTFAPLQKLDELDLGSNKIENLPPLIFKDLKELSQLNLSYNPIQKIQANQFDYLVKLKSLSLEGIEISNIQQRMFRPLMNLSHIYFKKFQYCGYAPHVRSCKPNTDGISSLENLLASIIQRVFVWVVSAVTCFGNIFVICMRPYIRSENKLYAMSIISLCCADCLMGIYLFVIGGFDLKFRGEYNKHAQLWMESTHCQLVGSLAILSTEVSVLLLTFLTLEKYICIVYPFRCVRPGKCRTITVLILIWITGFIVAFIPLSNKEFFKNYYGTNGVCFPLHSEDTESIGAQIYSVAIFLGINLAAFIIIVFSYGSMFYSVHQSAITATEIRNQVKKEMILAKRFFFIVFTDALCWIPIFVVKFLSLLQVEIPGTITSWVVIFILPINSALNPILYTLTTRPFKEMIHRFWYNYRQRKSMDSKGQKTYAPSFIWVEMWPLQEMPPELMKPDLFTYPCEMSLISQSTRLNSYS
# Assay: OVCAR5 cAMP assay (RXFP1 agonist activity, HTRF)
# Conditions: for Emax: OVCAR-5, read-out: cAMP assay in OVCAR 5 cells Emax, maximal intracellular cAMP relative to H2-relaxin in the same test occasion; for EC50: cAMP assay in OVCAR 5 cells EC50 (nM), OVCAR5 cells expressing endogenous RXFP1, cAMP by HTRF, 30 min at 37° C., 1 mM IBMX
Structure (SMILES),Emax [%],EC50 [nM]
CC[C@H](C)[C@H](NC(=O)[C@H](CCC(N)=O)NC(=O)[C@H](C)NC(=O)[C@H](CCCNC(=N)N)NC(=O)[C@@H](NC(=O)[C@H](CCCCN)NC(=O)[C@H](CCC(=O)O)NC(=O)[C@H](CCCNC(=N)N)NC(=O)CNC(=O)[C@H](CCC(=O)O)NC(=O)[C@H](CC(C)C)NC(C)=O)C(C)C)C(=O)NC(C)(C)C(=O)NC(C)(C)C(=O)N[C@@H](CCC(=O)O)C(=O)NCC(=O)N[C@@H](CCSC)C(=O)N[C@@H](CO)C(=O)N[C@H](C(=O)N[C@@H](Cc1c[nH]c2ccccc12)C(=O)N[C@@H](CO)C(=O)N[C@@H](CCCCN)C(=O)N[C@@H](CCCNC(=N)N)C(=O)N[C@@H](CCCCN)C(=O)N[C@@H](CCCCN)C(N)=O)[C@@H](C)O [compound 10] (Ac-LEGREKVRAQI[Aib][Aib]EGMSTWSKRKK-NH2),103,–
CCCC[C@H](NC(=O)CNC(=O)[C@H](CCC(=O)O)NC(=O)C(C)(C)NC(=O)C(C)(C)NC(=O)[C@@H](NC(=O)[C@H](CCC(N)=O)NC(=O)[C@H](CCCCNC(C)=O)NC(=O)[C@H](CCCNC(=N)N)NC(=O)[C@@H](NC(=O)[C@H](CCCCN)NC(=O)[C@H](CCC(=O)O)NC(=O)[C@H](CCCNC(=N)N)NC(=O)CNC(=O)[C@H](CCC(=O)O)NC(=O)[C@H](CC(C)C)NC(C)=O)C(C)C)[C@@H](C)CC)C(=O)N[C@@H](CO)C(=O)N[C@H](C(=O)N[C@@H](Cc1c[nH]c2ccccc12)C(=O)N[C@@H](CO)C(=O)NC(C)(C)C(=O)N[C@@H](CCCNC(=N)N)C(=O)N[C@@H](CCCCN)C(=O)N[C@@H](CCCCN)C(N)=O)[C@@H](C)O [compound 33] (Ac-LEGREKVRK(Ac)QI[Aib][Aib]EG[Nle]STWS[Aib]RKK-NH2),105,–
CC[C@H](C)[C@H](NC(=O)[C@H](C)NC(=O)[C@H](C)NC(=O)[C@H](CCCNC(=N)N)NC(=O)[C@@H](NC(=O)[C@H](CCCCN)NC(=O)[C@H](CCC(=O)O)NC(=O)[C@H](CCCNC(=N)N)NC(=O)CNC(=O)[C@H](CCC(=O)O)NC(=O)[C@H](CC(C)C)NC(C)=O)C(C)C)C(=O)NC(C)(C)C(=O)NC(C)(C)C(=O)N[C@@H](CCC(=O)O)C(=O)NCC(=O)N[C@@H](CCSC)C(=O)N[C@@H](CO)C(=O)N[C@H](C(=O)N[C@@H](Cc1c[nH]c2ccccc12)C(=O)N[C@@H](CO)C(=O)N[C@@H](CCCCN)C(=O)N[C@@H](CCCNC(=N)N)C(=O)N[C@@H](CCCCN)C(=O)N[C@@H](CCCCN)C(N)=O)[C@@H](C)O [compound 16] (Ac-LEGREKVRAAI[Aib][Aib]EGMSTWSKRKK-NH2),101,≤ 5
CC[C@H](C)[C@H](NC(=O)[C@H](CCC(N)=O)NC(=O)C(C)(C)NC(=O)[C@H](CCCNC(=N)N)NC(=O)[C@@H](NC(=O)[C@H](CCCCN)NC(=O)[C@H](CCC(=O)O)NC(=O)[C@H](CCCNC(=N)N)NC(=O)CNC(=O)[C@H](CCC(=O)O)NC(=O)[C@H](CC(C)C)NC(C)=O)C(C)C)C(=O)NC(C)(C)C(=O)NC(C)(C)C(=O)N[C@@H](CCC(=O)O)C(=O)NCC(=O)N[C@@H](CCSC)C(=O)N[C@@H](CO)C(=O)N[C@H](C(=O)N[C@@H](Cc1c[nH]c2ccccc12)C(=O)N[C@@H](CO)C(=O)NC(C)(C)C(=O)N[C@@H](CCCNC(=N)N)C(N)=O)[C@@H](C)O [compound 42] (Ac-LEGREKVR[Aib]QI[Aib][Aib]EGMSTWS[Aib]R-NH2),104,251
CCCC[C@H](NC(=O)CNC(=O)[C@H](CCC(=O)O)NC(=O)C(C)(C)NC(=O)C(C)(C)NC(=O)[C@@H](NC(=O)C(C)(C)NC(=O)[C@H](C)NC(=O)[C@H](CCCNC(=N)N)NC(=O)[C@@H](NC(=O)[C@H](CCCCN)NC(=O)[C@H](CCC(=O)O)NC(=O)[C@H](CCCNC(=N)N)NC(=O)CNC(=O)[C@H](CCC(=O)O)NC(=O)[C@H](CC(C)C)NC(C)=O)C(C)C)[C@@H](C)CC)C(=O)N[C@@H](CO)C(=O)N[C@H](C(=O)N[C@@H](Cc1c[nH]c2ccccc12)C(=O)N[C@@H](CO)C(=O)N[C@@H](CCCCN)C(=O)N[C@@H](CCCNC(=N)N)C(=O)N[C@@H](CCCCN)C(=O)N[C@@H](CCCCN)C(N)=O)[C@@H](C)O [compound 19] (Ac-LEGREKVRA[Aib]I[Aib][Aib]EG[Nle]STWSKRKK-NH2),97,–
CC[C@H](C)[C@H](NC(=O)[C@H](CCC(N)=O)NC(=O)[C@H](C)NC(=O)[C@H](CCCNC(=N)N)NC(=O)[C@@H](NC(=O)[C@H](CCCCN)NC(=O)[C@H](CCC(=O)O)NC(=O)[C@H](CCCNC(=N)N)NC(=O)CNC(=O)[C@H](CCC(=O)O)NC(=O)C(C)(C)N)C(C)C)C(=O)NC(C)(C)C(=O)NC(C)(C)C(=O)N[C@@H](CCC(=O)O)C(=O)NCC(=O)N[C@@H](CCSC)C(=O)N[C@@H](CO)C(=O)N[C@@H](CCCCN)C(=O)N[C@@H](Cc1c[nH]c2ccccc12)C(=O)N[C@@H](CO)C(=O)N[C@@H](CCCCN)C(=O)N[C@@H](CCCNC(=N)N)C(=O)N[C@@H](CCCCN)C(=O)N[C@@H](CCCCN)C(N)=O [compound 12] (H-[Aib]EGREKVRAQI[Aib][Aib]EGMSKWSKRKK-NH2),99,–
CCCC[C@H](NC(=O)CNC(=O)[C@H](CCC(=O)O)NC(=O)C(C)(C)NC(=O)C(C)(C)NC(=O)[C@@H](NC(=O)[C@H](CCC(N)=O)NC(=O)[C@H](C)NC(=O)[C@H](CCCNC(=N)N)NC(=O)[C@@H](NC(=O)[C@H](CCCCN)NC(=O)[C@H](CCC(=O)O)NC(=O)[C@H](CCCNC(=N)N)NC(=O)CNC(=O)[C@H](CCC(=O)O)NC(=O)[C@H](CC(C)C)NC(C)=O)C(C)C)[C@@H](C)CC)C(=O)N[C@@H](CO)C(=O)N[C@@H](CCCCN)C(=O)N[C@@H](Cc1cccc2ccccc12)C(=O)N[C@@H](CO)C(=O)N[C@@H](CCCCN)C(=O)N[C@@H](CCCNC(=N)N)C(=O)N[C@@H](CCCCN)C(=O)N[C@@H](CCCCN)C(N)=O [compound 14] (Ac-LEGREKVRAQI[Aib][Aib]EG[Nle]SK[1Nal]SKRKK-NH2),106,32.8
CCCC[C@H](NC(=O)CNC(=O)[C@H](CCC(=O)O)NC(=O)C(C)(C)NC(=O)C(C)(C)NC(=O)[C@@H](NC(=O)[C@H](CCCCNC(C)=O)NC(=O)[C@H](C)NC(=O)[C@H](CCCNC(=N)N)NC(=O)[C@@H](NC(=O)[C@H](CCCCN)NC(=O)[C@H](CCC(=O)O)NC(=O)[C@H](CCCNC(=N)N)NC(=O)CNC(=O)[C@H](CCC(=O)O)NC(=O)[C@H](CC(C)C)NC(C)=O)C(C)C)[C@@H](C)CC)C(=O)N[C@@H](CO)C(=O)N[C@H](C(=O)N[C@@H](Cc1c[nH]c2ccccc12)C(=O)N[C@@H](CO)C(=O)NC(C)(C)C(=O)N[C@@H](CCCNC(=N)N)C(=O)N[C@@H](CCCCNC(C)=O)C(=O)N[C@@H](CCCCN)C(N)=O)[C@@H](C)O [compound 27] (Ac-LEGREKVRAK(Ac)I[Aib][Aib]EG[Nle]STWS[Aib]RK(Ac)K-NH2),95,9.5
CCCC[C@H](NC(=O)CNC(=O)[C@H](CCC(=O)O)NC(=O)C(C)(C)NC(=O)C(C)(C)NC(=O)[C@@H](NC(=O)[C@H](CCC(N)=O)NC(=O)[C@H](C)NC(=O)[C@H](CCCNC(=N)N)NC(=O)[C@@H](NC(=O)[C@H](CCCCN)NC(=O)[C@H](CCC(=O)O)NC(=O)[C@H](CCCNC(=N)N)NC(=O)CNC(=O)[C@H](CCC(=O)O)NC(=O)[C@H](CC(C)C)NC(C)=O)C(C)C)[C@@H](C)CC)C(=O)N[C@@H](CO)C(=O)N[C@@H](CCCCN)C(=O)N[C@@H](Cc1cccc2ccccc12)C(=O)N[C@@H](CO)C(=O)N[C@@H](CCCCN)C(=O)N[C@@H](CCCNC(=N)N)C(N)=O [compound 36] (Ac-LEGREKVRAQI[Aib][Aib]EG[Nle]SK[1Nal]SKR-NH2),103,–
CCCC[C@H](NC(=O)CNC(=O)[C@H](CCC(=O)O)NC(=O)C(C)(C)NC(=O)C(C)(C)NC(=O)[C@@H](NC(=O)[C@H](CCC(N)=O)NC(=O)[C@H](C)NC(=O)[C@H](CCCNC(=N)N)NC(=O)[C@@H](NC(=O)[C@H](CCCCN)NC(=O)[C@H](CCC(=O)O)NC(=O)[C@H](CCCNC(=N)N)NC(=O)CNC(=O)[C@H](CCC(=O)O)NC(=O)[C@H](CC(C)C)NC(C)=O)C(C)C)[C@@H](C)CC)C(=O)N[C@@H](CO)C(=O)N[C@H](C(=O)N[C@@H](Cc1cccc2ccccc12)C(=O)N[C@@H](CO)C(=O)N[C@@H](CCCCN)C(=O)N[C@@H](CCCNC(=N)N)C(=O)N[C@@H](CCCCN)C(=O)N[C@@H](CCCCN)C(N)=O)[C@@H](C)O [compound 15] (Ac-LEGREKVRAQI[Aib][Aib]EG[Nle]ST[1Nal]SKRKK-NH2),104,24.4
CCCC[C@H](NC(=O)CNC(=O)[C@H](CCC(=O)O)NC(=O)C(C)(C)NC(=O)C(C)(C)NC(=O)[C@@H](NC(=O)[C@H](CCCCNC(C)=O)NC(=O)[C@H](C)NC(=O)[C@H](CCCNC(=N)N)NC(=O)[C@@H](NC(=O)[C@H](CCCCN)NC(=O)[C@H](CCC(=O)O)NC(=O)[C@H](CCCNC(=N)N)NC(=O)CNC(=O)[C@H](CCC(=O)O)NC(=O)[C@](C)(CC(C)C)NC(C)=O)C(C)C)[C@@H](C)CC)C(=O)N[C@@H](CO)C(=O)N[C@H](C(=O)N[C@@H](Cc1c[nH]c2ccccc12)C(=O)N[C@@H](CO)C(=O)NC(C)(C)C(=O)N[C@@H](CCCNC(=N)N)C(=O)N[C@@H](CCCCN)C(=O)N[C@@H](CCCCNC(C)=O)C(N)=O)[C@@H](C)O [compound 56] (Ac-[αMeL]EGREKVRAK(Ac)I[Aib][Aib]EG[Nle]STWS[Aib]RKK(Ac)-NH2),95,–
